Source: PubChem BioAssay (NCI)
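1) Cells in 96-well plates. 2) Compound, 48 h, 5 concentrations. 3) Linear interpolation between surrounding doses. 4) Unreached endpoint = highest concentration. TGI denotes the concentration required for complete inhibition of growth.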

Experiments:
Experiment in all cases: NCI anticancer screen, dose series, 48 h
SK-OV-3 ovarian = test system: SK-OV-3 ovarian
CAKI-1 renal = test system: CAKI-1 renal
M14 melanoma = test system: M14 melanoma
HOP-92 NSCLC = test system: HOP-92 NSCLC
IGROV1 ovarian = test system: IGROV1 ovarian
CCRF-CEM leukemia = test system: CCRF-CEM leukemia
SF-539 CNS = test system: SF-539 CNS
SR leukemia = test system: SR leukemia
NCI-H522 lung = test system: NCI-H522 lung
786-0 renal = test system: 786-0 renal
HS 578T breast = test system: HS 578T breast
MOLT-4 leukemia = test system: MOLT-4 leukemia
HCT-15 colon = test system: HCT-15 colon
HOP-62 NSCLC = test system: HOP-62 NSCLC
NCI/ADR-RES ovarian = test system: NCI/ADR-RES ovarian
OVCAR-4 ovarian = test system: OVCAR-4 ovarian
LOX IMVI melanoma = test system: LOX IMVI melanoma
K-562 leukemia = test system: K-562 leukemia
COLO 205 colon = test system: COLO 205 colon
HCT-116 colon = test system: HCT-116 colon
SN12C renal = test system: SN12C renal
T-47D breast = test system: T-47D breast
SW-620 colon = test system: SW-620 colon
MCF7 breast = test system: MCF7 breast
OVCAR-3 ovarian = test system: OVCAR-3 ovarian
SK-MEL-5 melanoma = test system: SK-MEL-5 melanoma
BT-549 breast = test system: BT-549 breast
HT29 colon = test system: HT29 colon
HCC-2998 colon = test system: HCC-2998 colon
SF-295 CNS = test system: SF-295 CNS
DU-145 prostate = test system: DU-145 prostate
KM12 colon = test system: KM12 colon
A498 renal = test system: A498 renal
PC-3 prostate = test system: PC-3 prostate
HL-60(TB) leukemia = test system: HL-60(TB) leukemia
U251 CNS = test system: U251 CNS
UACC-62 melanoma = test system: UACC-62 melanoma
TK-10 renal = test system: TK-10 renal
A549 NSCLC = test system: A549 NSCLC
SK-MEL-2 melanoma = test system: SK-MEL-2 melanoma
MDA-MB-435 = test system: MDA-MB-435
NCI-H23 lung = test system: NCI-H23 lung
SNB-75 CNS = test system: SNB-75 CNS
RPMI-8226 leukemia = test system: RPMI-8226 leukemia
NCI-H226 lung = test system: NCI-H226 lung
OVCAR-5 ovarian = test system: OVCAR-5 ovarian
UO-31 renal = test system: UO-31 renal
UACC-257 melanoma = test system: UACC-257 melanoma
MDA-MB-231 breast = test system: MDA-MB-231 breast
SK-MEL-28 melanoma = test system: SK-MEL-28 melanoma
MALME-3M melanoma = test system: MALME-3M melanoma
ACHN renal = test system: ACHN renal
SF-268 CNS = test system: SF-268 CNS
EKVX NSCLC = test system: EKVX NSCLC
NCI-H460 lung = test system: NCI-H460 lung
SNB-19 CNS = test system: SNB-19 CNS
RXF 393 renal = test system: RXF 393 renal

With `COc1cc(C2c3cc4c(cc3OC(C)(N3CCCC3)C2C)OCO4)cc(OC)c1OC` (configuration not stated) the TGI (SK-OV-3 ovarian) was over 62.6 µM, the TGI (CAKI-1 renal) was over 20.2 µM and the TGI (M14 melanoma) was 4.81 µM. The TGI (HOP-92 NSCLC) was 33.6 µM, the TGI (IGROV1 ovarian) was 46.7 µM and the TGI (CCRF-CEM leukemia) was over 50.3 µM. For the same molecule, the TGI (SF-539 CNS) was 716 nM, the TGI (SR leukemia) was 9.62 µM and the TGI (NCI-H522 lung) was 612 nM. For the same molecule, the TGI (786-0 renal) was over 100 µM, the TGI (HS 578T breast) was 721 nM and the TGI (MOLT-4 leukemia) was 10.6 µM. It also gave a TGI (HCT-15 colon) of 11.3 µM, a TGI (HOP-62 NSCLC) of 66.8 µM and a TGI (NCI/ADR-RES ovarian) of 522 nM. It also gave a TGI (OVCAR-4 ovarian) of over 100 µM, a TGI (LOX IMVI melanoma) of over 31.4 µM and a TGI (K-562 leukemia) of 908 nM. It also gave a TGI (COLO 205 colon) of 528 nM, a TGI (HCT-116 colon) of 16.5 µM and a TGI (SN12C renal) of 30.8 µM. It also gave a TGI (T-47D breast) of over 100 µM, a TGI (SW-620 colon) of over 100 µM and a TGI (MCF7 breast) of 16.3 µM. For the same molecule, the TGI (OVCAR-3 ovarian) was 528 nM, the TGI (SK-MEL-5 melanoma) was 1580 nM and the TGI (BT-549 breast) was 12.2 µM. It also gave a TGI (HT29 colon) of 836 nM, a TGI (HCC-2998 colon) of 2570 nM and a TGI (SF-295 CNS) of 661 nM. The TGI (DU-145 prostate) was 2570 nM, the TGI (KM12 colon) was 9.45 µM and the TGI (A498 renal) was 5.7 µM. For the same molecule, the TGI (PC-3 prostate) was over 100 µM, the TGI (HL-60(TB) leukemia) was 685 nM and the TGI (U251 CNS) was 23.3 µM. It also gave a TGI (UACC-62 melanoma) of 19.1 µM, a TGI (TK-10 renal) of over 67.1 µM and a TGI (A549 NSCLC) of over 100 µM. It also gave a TGI (SK-MEL-2 melanoma) of 52.1 µM, a TGI (MDA-MB-435) of 377 nM and a TGI (NCI-H23 lung) of 6.32 µM. For the same molecule, the TGI (SNB-75 CNS) was 650 nM, the TGI (RPMI-8226 leukemia) was 11.7 µM and the TGI (NCI-H226 lung) was 2050 nM. It also gave a TGI (OVCAR-5 ovarian) of over 20.5 µM, a TGI (UO-31 renal) of 57 µM and a TGI (UACC-257 melanoma) of over 100 µM. The TGI (MDA-MB-231 breast) was 2420 nM, the TGI (SK-MEL-28 melanoma) was over 100 µM and the TGI (MALME-3M melanoma) was over 55.2 µM. The TGI (ACHN renal) was over 79.9 µM, the TGI (SF-268 CNS) was over 92.9 µM and the TGI (EKVX NSCLC) was over 50.8 µM. For the same molecule, the TGI (NCI-H460 lung) was 19.2 µM, the TGI (SNB-19 CNS) was over 100 µM and the TGI (RXF 393 renal) was 2930 nM.
